pIC50: −log10 of the molar value. Calls of active or inactive are those of the source. No cut-off for these calls is given here.
Tests used:
Lemna aequinoctialis [1] = test: Phytotoxicity against Lemna aequinoctialis assessed as growth inhibition at 50 ug/ml after 7 days relative to control; format: functional; details: 168 h, read-out: GI
Lemna aequinoctialis [2] = test: Phytotoxicity against Lemna aequinoctialis assessed as growth inhibition at 500 ug/ml after 7 days relative to control; format: functional; details: 168 h, read-out: GI
Homo sapiens = organism: Homo sapiens; test: Inhibition of […] urease-mediated ammonia production at 100 uM after 15 min by indophenol method
Lemna aequinoctialis [3] = test: Phytotoxicity against Lemna aequinoctialis assessed as growth inhibition at 5 ug/ml after 7 days relative to control; format: functional; details: 168 h, read-out: GI
[4] = Toxicity against Artemia salina (brine shrimp) assessed as mortality after 24 hr; format: organism-based; details: in vivo, read-out: LD50
[5] = target: Urease (Canavalia ensiformis) (UniProt P07374); test: Inhibition of Canavalia ensiformis (jack bean) urease assessed as inhibition of ammonia production at 100 uM after 15 min by indophenol method
Chain of Urease (Canavalia ensiformis) (P07374 whole entry, looked up): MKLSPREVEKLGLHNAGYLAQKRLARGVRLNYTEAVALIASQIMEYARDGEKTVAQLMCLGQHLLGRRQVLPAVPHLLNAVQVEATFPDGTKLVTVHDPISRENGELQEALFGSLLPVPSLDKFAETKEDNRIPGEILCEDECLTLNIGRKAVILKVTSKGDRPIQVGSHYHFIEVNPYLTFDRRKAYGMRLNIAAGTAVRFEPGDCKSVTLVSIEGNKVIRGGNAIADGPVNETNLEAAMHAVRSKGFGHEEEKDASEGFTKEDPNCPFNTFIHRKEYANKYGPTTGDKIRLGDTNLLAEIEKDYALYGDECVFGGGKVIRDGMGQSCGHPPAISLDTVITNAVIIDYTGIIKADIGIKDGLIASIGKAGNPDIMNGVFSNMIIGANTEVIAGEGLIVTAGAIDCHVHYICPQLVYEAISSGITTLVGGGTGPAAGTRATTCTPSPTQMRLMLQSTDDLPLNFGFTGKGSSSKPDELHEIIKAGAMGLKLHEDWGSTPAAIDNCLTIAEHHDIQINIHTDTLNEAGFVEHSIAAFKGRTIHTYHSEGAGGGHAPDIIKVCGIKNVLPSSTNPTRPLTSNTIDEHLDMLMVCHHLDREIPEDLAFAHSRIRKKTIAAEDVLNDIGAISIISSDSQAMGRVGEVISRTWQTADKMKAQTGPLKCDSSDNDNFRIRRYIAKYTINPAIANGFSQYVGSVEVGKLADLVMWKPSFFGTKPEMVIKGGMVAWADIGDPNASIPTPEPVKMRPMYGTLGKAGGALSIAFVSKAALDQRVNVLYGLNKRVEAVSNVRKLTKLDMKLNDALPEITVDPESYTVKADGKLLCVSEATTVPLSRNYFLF

Urease = Urease (Canavalia ensiformis, UniProt P07374); test: Inhibition of Canavalia ensiformis (jack bean) urease assessed as inhibition of ammonia production after 15 min by indophenol method; details: for pIC50: read-out: IC50
Chain of Urease (P07374 whole entry): as the sequence (P07374 whole entry, looked up) above

[6] = target: Urease (Canavalia ensiformis) (UniProt P07374); test: Inhibition of Canavalia ensiformis (jack bean) urease assessed as inhibition of ammonia production at 500 uM after 15 min by indophenol method
Microsporum canis = test: Growth inhibition of Arthroderma otae at 200 ug/ml after 7 days; format: functional; details: 168 h
Fusarium solani = test: Growth inhibition of Fusarium solani at 200 ug/ml after 7 days; format: functional; details: 168 h
Aspergillus flavus = test: Growth inhibition of Aspergillus flavus at 200 ug/ml after 7 days; format: functional; details: 168 h
Nakaseomyces glabratus = test: Growth inhibition of Candida glabrata at 200 ug/ml after 7 days; format: functional; details: 168 h
Candida albicans = test: Growth inhibition of Candida albicans at 200 ug/ml after 7 days; format: functional; details: 168 h
Trichophyton longifusum = test: Growth inhibition of Trichophyton longifusum at 200 ug/ml after 7 days; format: functional; details: 168 h
[7] = target: Urease (Canavalia ensiformis) (UniProt P07374); test: Inhibition of Canavalia ensiformis (jack bean) urease assessed as inhibition of ammonia production at 200 uM after 15 min by indophenol method
Lemna aequinoctialis [8] = test: Phytotoxicity against Lemna aequinoctialis assessed as growth inhibition at 0.015 g/ml after 7 days relative to control; format: functional

Compound | inhibition of growth at 50 µg/mL (Lemna aequinoctialis [1]) [%] | inhibition of growth at 500 µg/mL (Lemna aequinoctialis [2]) [%] | inhibition (Homo sapiens) | inhibition of growth at 5 µg/mL (Lemna aequinoctialis [3]) [%] | LC50 at 24 h [4] [µM] | inhibition [5] [%] | pIC50 (Urease) | inhibition [6] [%] | inhibition at 200 µg/mL (Microsporum canis) [%] | inhibition at 200 µg/mL (Fusarium solani) [%] | inhibition at 200 µg/mL (Aspergillus flavus) [%] | inhibition at 200 µg/mL (Nakaseomyces glabratus) [%] | inhibition at 200 µg/mL (Candida albicans) [%] | inhibition at 200 µg/mL (Trichophyton longifusum) [%] | IC50 (Urease) | inhibition [7] [%] | growth inhibition (GI) (Lemna aequinoctialis [8]) [%]
O=C1Nc2ccccc2/C1=N/NC(=S)Nc1ccccc1 | 25 | 40 | inactive | 15 | > 338 |  |  |  |  |  |  |  |  |  |  |  | 
O=C1Nc2ccccc2/C1=N/NC(=S)Nc1c(F)cccc1F |  |  |  |  |  | 92 | 4.48 |  |  |  |  |  |  |  |  |  | 
NC(N)=S |  |  |  |  |  |  |  | 99 |  |  |  |  |  |  |  |  | 
O=C1Nc2ccc(F)cc2/C1=N/NC(=S)Nc1c(F)cccc1F | 10 | 30 |  | 0 | 115 |  | 4.33 | 72.5 | 40 | 0 | 40 | 0 | 0 | 0 |  |  | 
O=C1Nc2ccc(F)cc2/C1=N/NC(=S)Nc1ccc(F)cc1F | 20 | 30 |  | 10 | > 57.1 |  |  | 22.1 | 35 | 15 | 40 | 0 | 0 | 0 | Not Active |  | 
O=C1Nc2ccc(F)cc2/C1=N/NC(=S)Nc1ccc(Br)cc1F | 25 | 30 |  | 10 | > 49.1 |  |  |  | 20 | 10 | 0 | 0 | 0 | 0 | Not Active | 21.9 | 
O=C1Nc2ccc(F)cc2/C1=N/NC(=S)Nc1ccc(F)cc1 | 25 | 35 |  | 10 | 97.9 |  |  | 45.6 | 15 | 10 | 0 | 0 | 0 | 0 | Not Active |  | 
O=C1Nc2ccccc2/C1=N/NC(=S)Nc1cccc(C(F)(F)F)c1 |  |  |  |  |  | 78.2 | 4.69 |  |  |  |  |  |  |  |  |  | 
O=C1Nc2ccccc2/C1=N/NC(=S)Nc1ccc(F)cc1F |  |  |  |  |  | 71.9 | 4.32 |  |  |  |  |  |  |  |  |  | 
O=C1Nc2ccccc2/C1=N/NC(=S)Nc1ccccc1C(F)(F)F |  |  |  |  |  | 63.1 | 4.48 |  |  |  |  |  |  |  |  |  | 
O=C1Nc2ccc(F)cc2/C1=N/NC(=S)Nc1ccccc1F | 25 | 35 |  | 20 | 279 |  | 4.42 | 94.6 | 30 | 20 | 0 | 0 | 0 | 0 |  |  | 
O=C1Nc2ccc(F)cc2/C1=N/NC(=S)Nc1ccccc1 | 15 | 70 |  | 10 | 68.9 |  | 3.46 | 53 | 20 | 0 | 0 | 0 | 0 | 0 |  |  | 
O=C1Nc2ccc(F)cc2/C1=N/NC(=S)Nc1ccc(C(F)(F)F)cc1 | 15 | 25 |  | 10 | 176 |  | 4.04 |  | 25 | 5 | 20 | 0 | 0 | 0 |  | 53.4 | 
O=C1Nc2ccc(F)cc2/C1=N/NC(=S)Nc1ccc(OC(F)(F)F)cc1 | 20 | 35 |  | 10 | > 50.3 |  |  | 18.9 | 30 | 0 | 10 | 0 | 0 | 0 | Not Active |  | 
O=C1Nc2ccccc2/C1=N/NC(=S)Nc1ccccc1F |  |  |  |  |  | 84.9 | 4.69 |  |  |  |  |  |  |  |  |  | 
O=C1Nc2ccc(F)cc2/C1=N/NC(=S)Nc1ccccc1C(F)(F)F | 10 | 25 |  | 5 | > 52.4 |  | 4.30 |  | 20 | 0 | 15 | 0 | 0 | 0 |  | 77.3 | 
O=C1Nc2ccc(F)cc2/C1=N/NC(=S)Nc1cccc(C(F)(F)F)c1 | 10 | 30 |  | 0 | > 52.4 |  | 4.22 | 92.6 | 30 | 25 | 30 | 0 | 0 | 0 |  |  | 
O=C1Nc2ccccc2/C1=N/NC(=S)Nc1ccc(C(F)(F)F)cc1 |  |  |  |  |  | 44.6 | 4.30 |  |  |  |  |  |  |  |  |  | 
O=C1Nc2ccccc2/C1=N/NC(=S)Nc1cccc(F)c1 |  |  |  |  |  | 57.3 | 4.30 |  |  |  |  |  |  |  |  |  | 
O=C1Nc2ccc(F)cc2/C1=N/NC(=S)Nc1cccc(F)c1 | 25 | 30 |  | 15 | 121 |  | 4.34 |  | 25 | 15 | 10 | 0 | 0 | 0 |  | 79.8 | 
C[n+]1ccc(-c2cc[n+](C)cc2)cc1 |  |  |  |  |  |  |  |  |  |  |  |  |  |  |  |  | 100
O=C1Nc2ccccc2/C1=N/NC(=S)Nc1ccc(OC(F)(F)F)cc1 |  |  |  |  |  | 49.6 | 4.69 |  |  |  |  |  |  |  |  |  | 
O=C1Nc2ccccc2/C1=N/NC(=S)Nc1cc(F)cc(F)c1 |  |  |  |  |  | 38.8 |  |  |  |  |  |  |  |  |  |  | 
O=C1Nc2ccc(F)cc2/C1=N/NC(=S)Nc1cc(F)cc(F)c1 | 10 | 15 |  | 0 | 107 |  | 3.82 | 80.2 | 40 | 0 | 0 | 0 | 0 | 0 |  |  | 

— ChEMBL document CHEMBL3044957, “Synthesis and biological evaluation of some N 4-aryl-substituted 5-fluoroisatin-3-thiosemicarbazones” (Med Chem Res, 2013)
